According to ChEMBL document CHEMBL3431459, “Roche carnitine palmitoyltransferase modulator screening data (supplementary data associated with the publication CHEMBL2216752)”:
Values after ≈ are worked out from the molar mass of the structure shown.

Tests used:
[1] = SUPPLEMENTARY: PAMPA permeability assay; assay type: physicochemical; conditions: read-out: Permeability
[2] = SUPPLEMENTARY: Lyophilisation Solubility Assay (LYSA); assay type: physicochemical; conditions: read-out: Kinetic_solubility
[3] = SUPPLEMENTARY: Lipophilicity (log D) Determination by high-throughput shake-flask; assay type: physicochemical; conditions: octanol/water
[4] = biological target: T1, Carnitine O-palmitoyltransferase 1, liver isoform (Homo sapiens, UniProt P50416); test: (§1) SUPPLEMENTARY: Inhibition of Carnitine palmitoyltransferase 1, liver isoform
T1 sequence (P50416 whole entry): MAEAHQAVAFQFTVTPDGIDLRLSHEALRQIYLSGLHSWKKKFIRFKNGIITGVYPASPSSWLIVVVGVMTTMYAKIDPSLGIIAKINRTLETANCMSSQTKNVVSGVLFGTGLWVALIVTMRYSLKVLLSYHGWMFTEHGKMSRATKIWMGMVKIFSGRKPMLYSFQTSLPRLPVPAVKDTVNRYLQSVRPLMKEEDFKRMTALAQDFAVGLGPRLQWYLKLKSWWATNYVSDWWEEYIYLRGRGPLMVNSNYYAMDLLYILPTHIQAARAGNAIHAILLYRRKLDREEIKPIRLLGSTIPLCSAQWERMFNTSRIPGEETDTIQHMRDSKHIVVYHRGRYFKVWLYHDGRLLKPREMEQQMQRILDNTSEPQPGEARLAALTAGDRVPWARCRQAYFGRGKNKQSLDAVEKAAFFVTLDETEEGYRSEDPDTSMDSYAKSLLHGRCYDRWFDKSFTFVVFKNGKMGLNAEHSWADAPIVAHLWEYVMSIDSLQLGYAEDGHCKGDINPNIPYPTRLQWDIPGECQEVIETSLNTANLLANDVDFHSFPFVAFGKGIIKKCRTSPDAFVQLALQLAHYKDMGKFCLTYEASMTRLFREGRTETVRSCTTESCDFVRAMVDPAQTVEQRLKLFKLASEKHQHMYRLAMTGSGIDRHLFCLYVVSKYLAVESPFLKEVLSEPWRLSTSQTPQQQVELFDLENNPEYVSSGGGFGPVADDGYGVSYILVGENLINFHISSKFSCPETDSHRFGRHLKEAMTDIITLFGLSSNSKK

[5] = biological target: T2, Carnitine O-palmitoyltransferase 1, liver isoform (Rattus norvegicus, UniProt P32198); test: as §1
T2 sequence (P32198 whole entry): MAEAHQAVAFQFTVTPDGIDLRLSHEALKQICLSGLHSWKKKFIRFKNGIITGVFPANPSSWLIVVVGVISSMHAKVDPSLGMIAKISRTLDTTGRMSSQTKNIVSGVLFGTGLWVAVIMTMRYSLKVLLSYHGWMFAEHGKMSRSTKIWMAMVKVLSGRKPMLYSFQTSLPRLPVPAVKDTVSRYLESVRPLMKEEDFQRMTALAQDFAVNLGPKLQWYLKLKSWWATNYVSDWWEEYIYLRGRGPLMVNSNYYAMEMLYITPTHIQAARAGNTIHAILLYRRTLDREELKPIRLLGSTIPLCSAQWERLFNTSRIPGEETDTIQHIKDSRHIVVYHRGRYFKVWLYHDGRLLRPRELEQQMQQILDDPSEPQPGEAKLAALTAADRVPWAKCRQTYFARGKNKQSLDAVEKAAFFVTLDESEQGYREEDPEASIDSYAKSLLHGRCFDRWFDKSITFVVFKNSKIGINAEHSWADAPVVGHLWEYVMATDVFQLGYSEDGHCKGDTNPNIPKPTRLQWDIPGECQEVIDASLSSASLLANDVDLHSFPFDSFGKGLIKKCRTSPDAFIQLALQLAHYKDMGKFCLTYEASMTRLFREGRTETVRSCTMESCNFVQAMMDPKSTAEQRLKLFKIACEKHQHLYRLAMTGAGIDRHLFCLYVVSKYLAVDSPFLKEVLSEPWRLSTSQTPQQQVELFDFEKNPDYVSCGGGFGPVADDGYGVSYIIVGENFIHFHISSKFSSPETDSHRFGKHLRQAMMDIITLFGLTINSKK

[6] = biological target: T3, Carnitine O-palmitoyltransferase 2, mitochondrial (Rattus norvegicus, UniProt P18886); test: (§2) SUPPLEMENTARY: Inhibition of Carnitine palmitoyltransferase 2
T3 sequence (P18886 whole entry): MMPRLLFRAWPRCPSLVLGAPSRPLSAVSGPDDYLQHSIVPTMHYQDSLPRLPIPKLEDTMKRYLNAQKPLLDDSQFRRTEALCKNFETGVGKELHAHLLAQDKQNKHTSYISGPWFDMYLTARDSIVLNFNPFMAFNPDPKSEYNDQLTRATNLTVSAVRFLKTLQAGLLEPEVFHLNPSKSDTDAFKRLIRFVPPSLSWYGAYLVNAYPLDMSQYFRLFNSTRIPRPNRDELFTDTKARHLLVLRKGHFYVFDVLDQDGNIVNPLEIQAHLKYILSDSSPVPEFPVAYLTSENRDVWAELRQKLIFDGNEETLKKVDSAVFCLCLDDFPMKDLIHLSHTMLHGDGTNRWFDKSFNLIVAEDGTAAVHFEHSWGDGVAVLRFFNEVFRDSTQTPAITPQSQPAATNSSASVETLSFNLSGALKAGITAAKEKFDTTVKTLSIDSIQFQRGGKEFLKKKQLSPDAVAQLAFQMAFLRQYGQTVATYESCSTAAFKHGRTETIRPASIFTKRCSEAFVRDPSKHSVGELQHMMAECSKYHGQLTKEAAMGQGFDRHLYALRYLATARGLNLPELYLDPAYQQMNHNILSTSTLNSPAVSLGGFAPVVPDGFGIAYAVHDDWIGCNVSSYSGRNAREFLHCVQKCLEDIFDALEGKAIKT

[7] = biological target: T4, Carnitine O-palmitoyltransferase 2, mitochondrial (Homo sapiens, UniProt P23786); test: as §2
T4 sequence (P23786 whole entry): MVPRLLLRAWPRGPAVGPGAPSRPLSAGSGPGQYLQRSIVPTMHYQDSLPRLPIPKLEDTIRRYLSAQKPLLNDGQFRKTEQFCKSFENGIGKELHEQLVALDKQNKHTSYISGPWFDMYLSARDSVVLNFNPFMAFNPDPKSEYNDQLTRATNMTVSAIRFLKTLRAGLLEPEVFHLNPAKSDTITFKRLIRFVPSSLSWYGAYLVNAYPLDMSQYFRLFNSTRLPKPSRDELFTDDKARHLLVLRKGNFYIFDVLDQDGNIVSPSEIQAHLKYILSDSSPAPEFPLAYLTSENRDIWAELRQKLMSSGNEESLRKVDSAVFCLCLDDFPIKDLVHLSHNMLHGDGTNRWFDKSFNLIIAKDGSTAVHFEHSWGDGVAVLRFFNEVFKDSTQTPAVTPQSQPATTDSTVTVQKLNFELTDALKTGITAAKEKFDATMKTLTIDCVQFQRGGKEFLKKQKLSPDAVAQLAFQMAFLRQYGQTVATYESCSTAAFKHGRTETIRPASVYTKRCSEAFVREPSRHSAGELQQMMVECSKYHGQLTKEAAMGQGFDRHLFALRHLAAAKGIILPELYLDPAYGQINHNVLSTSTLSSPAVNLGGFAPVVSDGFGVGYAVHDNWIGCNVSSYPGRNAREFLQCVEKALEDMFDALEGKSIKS

[8] = biological target: T5, Carnitine O-palmitoyltransferase 1, muscle isoform (Homo sapiens, UniProt Q92523); test: SUPPLEMENTARY: Inhibition of Carnitine palmitoyltransferase 1, muscle isoform; design: species or system Muscle tissue
T5 sequence (Q92523 whole entry): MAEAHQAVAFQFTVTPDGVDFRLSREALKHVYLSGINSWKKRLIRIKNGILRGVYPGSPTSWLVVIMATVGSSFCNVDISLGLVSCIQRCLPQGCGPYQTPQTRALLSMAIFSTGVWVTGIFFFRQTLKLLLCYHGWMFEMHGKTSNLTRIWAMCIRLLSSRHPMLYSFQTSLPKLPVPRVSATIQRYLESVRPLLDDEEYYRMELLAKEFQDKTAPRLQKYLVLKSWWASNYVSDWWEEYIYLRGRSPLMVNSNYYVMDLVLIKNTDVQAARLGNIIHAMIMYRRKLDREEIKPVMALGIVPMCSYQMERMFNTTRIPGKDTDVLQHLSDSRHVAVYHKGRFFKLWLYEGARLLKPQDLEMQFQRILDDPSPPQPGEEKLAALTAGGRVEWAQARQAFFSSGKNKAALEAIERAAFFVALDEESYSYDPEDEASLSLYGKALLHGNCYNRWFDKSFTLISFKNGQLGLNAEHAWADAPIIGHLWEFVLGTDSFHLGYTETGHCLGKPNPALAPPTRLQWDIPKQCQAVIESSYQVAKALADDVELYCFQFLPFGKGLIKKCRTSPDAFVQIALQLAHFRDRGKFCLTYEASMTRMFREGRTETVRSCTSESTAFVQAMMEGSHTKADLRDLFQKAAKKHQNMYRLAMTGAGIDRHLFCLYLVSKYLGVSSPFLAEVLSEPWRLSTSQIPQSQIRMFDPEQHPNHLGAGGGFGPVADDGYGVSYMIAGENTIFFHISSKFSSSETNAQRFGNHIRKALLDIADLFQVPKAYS

Compound | Papp [1] [×10⁻⁶ cm/s] | solubility kinetic [2] [µg/mL] | logD [3] | IC50 [4] [nM] | IC50 [5] [nM] | IC50 [6] [µM] | IC50 [7] [µM] | IC50 [8] [µM]
CC(C)C(=O)Nc1cccc(-c2n[nH]c([C@H]3CCCCN3C(=O)COc3ccccc3)n2)c1 | 2.6 | 29 (≈ 64.8 µM) | 3.32 | 72.1 | 692 | 24.1 | 36.7 | > 100
CCN(c1cc(C(=O)Nc2ncc(CC(=O)O)s2)cc2c1OCO2)S(=O)(=O)c1cc(Cl)ccc1OC | 3.22 | 144 (≈ 260 µM) | 2.74 | 88.4 | 98.9 | > 100 | > 100 | 0.62
O=C([C@H]1CCCCN1C(=O)COc1ccccc1)N1Cc2ccc(C3CCOCC3)cc2C1 | 4.45 | 14 (≈ 31.2 µM) | 2.8 | 63.8 | 64.1 | 0.477 | 0.642 | > 100
CC(=O)Nc1cccc(C#C[C@H]2CCCCN2C(=O)COc2ccccc2)c1 | 1.79 | < 1 | 3.49 | 108 | 191 | > 100 | > 100 | > 100
COc1ccc(Cl)cc1Sc1c[nH]c2ccc(C(=O)Nc3ccc(C(=O)O)cc3)cc12 | 0.18 | 6 (≈ 13.2 µM) | 2.21 | 200 | 148 | 22.9 | 4.47 | 2.52
O=C(COc1ccccc1)N1CCCC[C@@H]1c1noc(-c2cccc(N3CCCS3(=O)=O)c2)n1 | 1 | < 1 | 2.89 | 67 | 162 | > 100 | > 100 | > 100
CC(=O)Nc1ccc(-n2nnc([C@H]3CCCCN3C(=O)COc3ccccc3)n2)cc1 | 2.71 | 50 (≈ 119 µM) | 3.14 | 108 | 475 | 78.3 | 49.7 | > 100
COc1ccc(Cl)cc1S(=O)(=O)N1CCOc2ccc(C(=O)Nc3ccc(C(=O)O)nc3)cc21 | 0.57 | 195 (≈ 387 µM) | -0.42 | 232 | 575 | 24.6 | 5.45 | 22.6
O=C([C@H]1CCCCN1C(=O)COc1ccccc1)N1Cc2ccc(OCC3CC3)cc2C1 | 2.7 | 5 (≈ 11.5 µM) | 2.97 | 259 | 263 | 1.12 | 0.701 | > 100
COc1ccc(Cl)cc1S(=O)(=O)N(C)c1cc(C(=O)Nc2ccn(CC(=O)O)n2)cc2c1OCO2 | 0.13 | > 566 | -1.41 | 197 | 527 | > 100 | > 100 | 4.26
